Consider four compounds from US5498609A, “Benzoazepinyl compounds as oxytocin and vasopressin antagonists” (Otsuka Pharmaceutical Company, Limited, priority 1992, dated 1996).

For one assay, the target named is T1, V2 receptor (Rattus norvegicus, UniProt Q00788).
T1 construct: Using rat kidney plasma membrane preparations; from tissue; host or cells: rat kidney plasma membrane
Nature of the assay: biochemical. Particulars: rat kidney plasma membrane, [3H]-Arg-vasopressin, 4° C., pH 8.0, read-out: IC50 in V2 receptor binding assay. As for the experimental part:
Experiment 2: V2 receptor binding assay
Using rat kidney plasma membrane preparations prepared according to O. Hechter's method [cf: J. Bio. Chem., 253, 3211 (1978)], the plasma membrane (100000 dpm, 4×10^-10 M) of [^3 H]-Arg-vasopressin and a test compound (0.6 mg, 10^-10 to 10^-5 M) are incubated at 4° C. for 3 hours in 100 mM Tris-HCl buffer (pH: 8.0) (250 μl) containing 5 mM MgCl2, 1 mM EDTA and 0.1% BSA. After incubation, the mixture is filtered using the glass filter (GF/F) so as to separate the membrane preparation binding with vasopressin and then washed twice with the buffer (each 5 ml). This glass filter is taken out and mixed with liquid scintillation cocktail. The amount of [^3 H]-vasopressin binding with the membrane is measured by liquid scintillation counter and the rate of the inhibitory effect of the test compound is estimated according to the following equation. [formula] C1 : The amount of [^3 H]-vasopressin binding with the membrane in the presence of the test compound (known amount)
(§1) C0 : The amount of [^3 H]-vasopressin binding with the membrane in the absence of the test compound
(§2) B1 : The amount of [^3 H]-vasopressin binding with the membrane in the presence of the excess amount of vasopressin (10^-6 M)
(§3) The results are expressed as IC50 value, which is the concentration of the test compound required to achieve the inhibitory effect in the rate of 50%.

For the next assay, the target named is V1 receptor (Rattus norvegicus, UniProt P30560). Briefly: biochemical. The note with it: rat liver plasma membrane, [3H]-Arg-vasopressin, 37° C., 10 minutes, pH 8.0; read-out: IC50 in V1 receptor binding assay. On the procedure:
Experiment 1: V1 receptor binding assay
Using rat liver plasma membrane preparations prepared according to Ichihara's method [cf: Akira Ichihara, J. Bio. Chem., 258, 9283 (1983)], the plasma membrane (50000 dpm, 2×10^-10 M) of [^3 H]-Arg-vasopressin and a test compound (60 μg, 10^-8 to 10^-4 M) are incubated at 37° C. for 10 minutes in 100 mM Tris-HCl buffer (pH: 8.0) (250 μl) containing 5 mM MgCl2, 1 mM EDTA and 0.1% BSA. After incubation, the mixture is filtered three times using the glass filter (GF/F) so as to separate the membrane preparation binding with vasopressin and then washed with the buffer (5 ml). This glass filter is taken out and mixed with liquid scintillation cocktail. The amount of [^3 H]-vasopressin binding with the membrane is measured by liquid scintillation counter and the rate of the inhibitory effect of the test compound is estimated according to the following equation. [formula] C1 : The amount of [^3 H]-vasopressin binding with the membrane in the presence of the test compound (known amount)
as §1, §2, §3

For the next assay, the target named is T2, Oxytocin receptor (Rattus norvegicus, UniProt P70536).
T2 construct: from tissue; host or cells: rat uterine muscle membrane (diethylstilbestrol-treated)
T2 sequence (P70536 1-388): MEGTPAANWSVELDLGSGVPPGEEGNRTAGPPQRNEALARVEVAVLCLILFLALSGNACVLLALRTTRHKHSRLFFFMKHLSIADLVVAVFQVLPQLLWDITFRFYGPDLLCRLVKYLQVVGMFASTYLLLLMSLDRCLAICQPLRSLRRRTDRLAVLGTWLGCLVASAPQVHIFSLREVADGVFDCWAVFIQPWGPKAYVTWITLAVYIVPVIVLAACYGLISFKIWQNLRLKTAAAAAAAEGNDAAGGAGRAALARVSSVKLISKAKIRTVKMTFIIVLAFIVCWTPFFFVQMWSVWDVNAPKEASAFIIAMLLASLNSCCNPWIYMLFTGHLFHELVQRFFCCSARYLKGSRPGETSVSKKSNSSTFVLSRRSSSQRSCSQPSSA
Briefly: Oxytocin receptor binding assay ([3H]-oxytocin, rat uterine muscle membrane). The note with it: 25° C., one hour, pH 8.0. On the procedure:
Experiment 3: Oxytocin receptor binding assay
According to the method of W. Y. Chan et al. [Endocrinology, 126, 2095-2101 (1990)], uterine muscle is taken out from a rat which has previously been injected subcutaneously with diethylstilbestrol the day before, and homogenized, which is used as a membrane preparation. The membrane preparation (0.2 mg), [^3 H]-oxytocin (100000 dpm, 10^-9 M), a test compound (10^-9 -10^-5 M) are incubated at 25° C. for one hour in 100 mM Tris-HCl buffer (pH 8.0, 250 μl) containing a 5 mM MgCl2, 1 mM MEDTA and 0.1% BSA. The mixture is filtered through the glass filter (GF/B) so as to separate the membrane preparation binding with [^3 H]-oxytocin, and then, washed twice with the buffer (5 ml). This glass filter is put into a vial and mixed with Aquasole (liquid scintillation cocktail). The amount of [^3 H]-oxytocin binding with the membrane is measured by liquid scintillation counter. The rate of the inhibitory effect of the test compound is estimated according to the following equation.
Inhibitory Rate (%)=100-[(C1 -B)/(C0 -B)]×100
C1 : The amount of [^3 H]-oxytocin binding with the membrane in the presence of a test compound (known amount)
C0 : The amount of [^3 H]-oxytocin binding with the membrane in the absence of a test compound
B: The amount of [^3 H]-oxytocin binding with the membrane in the presence of the excess amount of oxytocin (5×10^-6 M).
The results are expressed as IC50 value, which is the concentration of the test compound required to achieve the inhibitory rate in the rate of 50%.

Molecules are shown by their SMILES.

T1 sequence (Q00788 whole entry): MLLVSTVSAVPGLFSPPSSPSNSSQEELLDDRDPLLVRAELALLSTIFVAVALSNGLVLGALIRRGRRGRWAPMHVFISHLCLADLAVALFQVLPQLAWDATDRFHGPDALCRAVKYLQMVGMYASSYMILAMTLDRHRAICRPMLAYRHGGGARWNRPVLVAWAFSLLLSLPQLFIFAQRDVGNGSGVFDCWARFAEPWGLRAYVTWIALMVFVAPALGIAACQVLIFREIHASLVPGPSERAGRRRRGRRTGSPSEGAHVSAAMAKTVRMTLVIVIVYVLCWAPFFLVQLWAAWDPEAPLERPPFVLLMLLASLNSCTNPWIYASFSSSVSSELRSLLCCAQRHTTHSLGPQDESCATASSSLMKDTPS
Chain of V1 receptor (P30560 whole entry): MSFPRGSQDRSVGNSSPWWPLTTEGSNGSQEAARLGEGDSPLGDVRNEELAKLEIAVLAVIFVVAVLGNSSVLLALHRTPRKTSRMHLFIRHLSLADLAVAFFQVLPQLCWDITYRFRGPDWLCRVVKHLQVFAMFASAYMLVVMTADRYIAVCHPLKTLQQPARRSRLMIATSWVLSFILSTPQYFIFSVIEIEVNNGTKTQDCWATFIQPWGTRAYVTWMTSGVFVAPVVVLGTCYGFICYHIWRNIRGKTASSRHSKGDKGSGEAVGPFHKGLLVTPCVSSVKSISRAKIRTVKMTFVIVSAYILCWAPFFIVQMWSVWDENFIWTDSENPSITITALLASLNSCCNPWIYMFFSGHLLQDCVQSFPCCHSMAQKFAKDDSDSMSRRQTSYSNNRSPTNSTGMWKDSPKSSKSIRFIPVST

Broadly, the IC50 is the concentration that gives 50% inhibition. Consider `CC(=O)OCCC1CCCN(C(=O)c2ccc(NC(=O)c3ccccc3Cl)nc2)c2ccc(Cl)cc21` (stereo not drawn) [Compound of Ex. 122, 7-chloro-5-(2-acetyloxyethyl)-1-[6-(2-chlorobenzoylamino)nicotinoyl]-2,3,4,5-tetrahydro-1H-benzazepine], for which the IC50 on V2 receptor was 3 nM; on V1 receptor, 15 nM; at Oxytocin receptor, 640 nM.
The corresponding values for `Cc1ccccc1C(=O)Nc1ccc(C(=O)N2CCCC(CCO)c3cc(Cl)ccc32)cn1` (stereo not drawn) [Compound of Ex. 123] are 3.2 nM, 20 nM and 320 nM.
Take `O=C(Nc1ccc(C(=O)N2CCCC(CCN3CCCC3)c3cc(Cl)ccc32)cn1)c1ccccc1Cl` (stereo not drawn) [Compound of Ex. 126, 7-chloro-5-[2-(1-pyrrolidinyl)ethyl]-1-[6-(2-chlorobenzoylamino)nicotinoyl]-2,3,4,5-tetrahydro-1H-benzazepine]: the IC50 on V2 receptor was 5.3 nM; at V1 receptor it was 19 nM; on Oxytocin receptor it was 1320 nM.
As to `O=C(Nc1ccc(C(=O)N2CCCC(CCN3CCOCC3)c3cc(Cl)ccc32)cn1)c1ccccc1Cl` (stereo not drawn) [Compound of Ex. 127], the IC50 at V2 receptor stood at 5.9 nM; at V1 receptor, 29 nM; at Oxytocin receptor it was 680 nM.
